According to ChEMBL document CHEMBL1125524, “Adenosine A1 antagonists. 2. Structure-activity relationships on diuretic activities and protective effects against acute renal failure” (J Med Chem, 1992):

Tests used:
Rattus norvegicus [1] = assay: Percent inhibition of serum creatinine by the compound given as ratio of UN value in treated to vehicle treated ones after intraperitoneal administration of 1 mg/kg of compound to rats(vehicle 120.9+/-23.3); format: functional; conditions: ip
Rattus norvegicus [2] = assay: Oral diuretic activity was measured after oral administration of 25 mg/kg to rats(control volume is 0.69+/-0.03); format: functional, Urine
Rattus norvegicus [3] = assay: Serum creatinine concentration measured after intraperitoneal administration of 1 mg/kg of compound to rats(vehicle 3.06+/-0.68); format: functional
Adenosine A2 receptor = Adenosine A2 receptor (Rattus norvegicus, UniProt P29276+P30543)
Rattus norvegicus [4] = assay: Serum creatinine concentration measured after intraperitoneal administration of 10 mg/kg of compound to rats(vehicle 4.26+/-0.39); format: functional
Rattus norvegicus [5] = assay: Percent inhibition of serum creatinine by the compound given as ratio of UN value in treated to vehicle treated ones after intraperitoneal administration of 10 mg/kg of compound to rats(vehicle 146.7+/-10.1); format: functional; conditions: ip
Rattus norvegicus [6] = assay: Oral diuretic activity was measured after oral administration of 1.6 mg/kg to rats(control volume is 1.12+/-0.33); format: functional, Urine
Rattus norvegicus [7] = assay: Urea nitrogen concentration measured after intraperitoneal administration of 1 mg/kg of compound to rats(vehicle 120.9+/-23.3); format: functional
Rattus norvegicus [8] = assay: Ratio of urinary excretion value (Na+ concentration) in treated rats to that in control rats, at a peroral dose of 1.6 mg/Kg; format: functional, Urine
Rattus norvegicus [9] = assay: Effect on urinary excretion potassium and sodium after oral administration of 1.6 mg/kg to rats(potassium and sodium excretion in control rat is 0.158+/-0.034); format: functional, Urine
Rattus norvegicus [10] = assay: Ratio of urinary excretion value (Na+ concentration) in treated rats to that in control rats, at a peroral dose of 25 mg/Kg; format: functional, Urine
Rattus norvegicus [11] = assay: Percent inhibition of serum creatinine by the compound given as ratio of Cr value in treated to vehicle treated ones after intraperitoneal administration of 10 mg/kg of compound to rats(vehicle 4.26+/-0.39); format: functional; conditions: ip
Rattus norvegicus [12] = assay: Urea nitrogen concentration measured after intraperitoneal administration of 10 mg/kg of compound to rats(vehicle 146.7+/-10.1); format: functional
Rattus norvegicus [13] = assay: Ratio of urinary excretion value (urinary volume) in treated rats to that in control rats, at a peroral dose of 25 mg/Kg; format: functional, Urine
Rattus norvegicus [14] = assay: Percent inhibition of serum creatinine by the compound given as ratio of Cr value in treated to vehicle treated ones after intraperitoneal administration of 1 mg/kg of compound to rats(vehicle 3.06+/-0.68); format: functional; conditions: ip
Rattus norvegicus [15] = assay: Ratio of sodium ion/potassium ion concentration in treated rats to that in control rats, at a peroral dose of 1.6 mg/Kg; format: functional
Rattus norvegicus [16] = assay: Effect on urinary excretion potassium and sodium after oral administration of 25 mg/kg to rats(potassium and sodium excretion in control rat is 0.079+/-0.007); format: functional, Urine
Rattus norvegicus [17] = assay: Ratio of sodium ion/potassium ion concentration in treated rats to that in control rats, at a peroral dose of 25 mg/Kg; format: functional
Rattus norvegicus [18] = assay: Ratio of urinary excretion value (urinary volume) in treated rats to that in control rats, at a peroral dose of 1.6 mg/Kg; format: functional, Urine
Rattus norvegicus [19] = species on record: Rattus norvegicus; assay: animal or person; conditions: ip, read-out: Inhibition, dose 1 mg/kg, route intraperitoneal
Rattus norvegicus [20] = assay: Ratio of urinary excretion value (Na+ concentration) in treated rats to that in control rats, at a peroral dose of 0.4 mg/Kg; format: functional, Urine
Rattus norvegicus [21] = species on record: Rattus norvegicus; assay: Ratio of sodium ion/potassium ion concentration in treated rats to that in control rats, at a peroral dose of 0.1; format: functional
Rattus norvegicus [22] = assay: Percent inhibition of Urea nitrogen by the compound given as ratio of UN value in treated to vehicle treated ones after intraperitoneal administration of 0.01 mg/kg of compound to rats(vehicle 141.3+/-8.3); format: functional; conditions: ip
Rattus norvegicus [23] = assay: Oral diuretic activity was measured after oral administration of 0.1 mg/kg to rats(control volume is 1.05+/-0.11); format: functional, Urine
Rattus norvegicus [24] = assay: Oral diuretic activity was measured after oral administration of 1.6 mg/kg to rats(control volume is 0.97+/-0.05); format: functional, Urine
Rattus norvegicus [25] = assay: Serum creatinine concentration measured after intraperitoneal administration of 0.01 mg/kg of compound to rats(vehicle 3.92+/-0.23); format: functional
Rattus norvegicus [26] = assay: Oral diuretic activity was measured after oral administration of 0.4 mg/kg to rats(control volume is 0.96+/-0.09); format: functional, Urine
Rattus norvegicus [27] = assay: Effect on urinary excretion potassium and sodium after oral administration of 0.1 mg/kg to rats(potassium and sodium excretion in control rat is 0.180+/-0.017); format: functional, Urine
Rattus norvegicus [28] = assay: Percent inhibition of serum creatinine by the compound given as ratio of Cr value in treated to vehicle treated ones after intraperitoneal administration of 0.1 mg/kg of compound to rats(vehicle 4.82+/-0.17); format: functional; conditions: ip
Rattus norvegicus [29] = assay: Percent inhibition of Urea nitrogen by the compound given as ratio of UN value in treated to vehicle treated ones after intraperitoneal administration of 0.1 mg/kg of compound to rats(vehicle 151.5+/-7.4); format: functional; conditions: ip
Rattus norvegicus [30] = assay: Percent inhibition of Urea nitrogen by the compound given as ratio of UN value in treated to vehicle treated ones after intraperitoneal administration of 1 mg/kg of compound to rats(vehicle 195.8+/-14.4); format: functional; conditions: Rattus norvegicus, ip
Rattus norvegicus [31] = assay: Urea nitrogen concentration measured after intraperitoneal administration of 0.1 mg/kg of compound to rats(vehicle 151.5+/-7.4); format: functional
Rattus norvegicus [32] = assay: Effect on urinary excretion potassium and sodium after oral administration of 0.4 mg/kg to rats(potassium and sodium excretion in control rat is 0.147+/-0.015); format: functional, Urine
Rattus norvegicus [33] = assay: Urea nitrogen concentration measured after intraperitoneal administration of 1 mg/kg of compound to rats(vehicle 195.8+/-14.4); format: functional
Rattus norvegicus [34] = assay: Percent inhibition of serum creatinine by the compound given as ratio of Cr value in treated to vehicle treated ones after intraperitoneal administration of 0.01 mg/kg of compound to rats(vehicle 3.92+/-0.23); format: functional; conditions: ip
Rattus norvegicus [35] = assay: Serum creatinine concentration measured after intraperitoneal administration of 0.1 mg/kg of compound to rats(vehicle 4.82+/-0.17); format: functional
Rattus norvegicus [36] = assay: Urea nitrogen concentration measured after intraperitoneal administration of 0.01 mg/kg of compound to rats(vehicle 141.3+/-8.3); format: functional
Rattus norvegicus [37] = assay: Ratio of urinary excretion value (Na+ concentration) in treated rats to that in control rats, at a peroral dose of 0.1 mg/Kg; format: functional, Urine
Rattus norvegicus [38] = assay: Effect on urinary excretion potassium and sodium after oral administration of 1.6 mg/kg to rats(potassium and sodium excretion in control rat is 0.169+/-0.012); format: functional, Urine
Rattus norvegicus [39] = assay: Serum creatinine concentration measured after intraperitoneal administration of 1 mg/kg of compound to rats(vehicle 5.07+/-0.33); format: functional
Rattus norvegicus [40] = assay: Ratio of urinary excretion value (urinary volume) in treated rats to that in control rats, at a peroral dose of 0.1 mg/Kg; format: functional, Urine
Rattus norvegicus [41] = assay: Ratio of urinary excretion value (urinary volume) in treated rats to that in control rats, at a peroral dose of 0.4 mg/Kg; format: functional, Urine
Rattus norvegicus [42] = assay: Ratio of sodium ion/potassium ion concentration in treated rats to that in control rats, at a peroral dose of 0.4 mg/Kg; format: functional

CCCn1c(=O)c2nc(C[C@H]3CC4CCC3C4)[nH]c2n(CCC)c1=O (some centres not stated)
inhibition in vivo at 1 mg/kg (Rattus norvegicus [1]): 13% | Urine volume (Rattus norvegicus [2]): 1.66 ml 6hr-1 100g-1 | Cr (Rattus norvegicus [3]): 2.75 mg/dL | Ki (Adenosine A2 receptor): 1000 nM | Cr (Rattus norvegicus [4]): 2.53 mg/dL | inhibition in vivo at 10 mg/kg (Rattus norvegicus [5]): 38% | Urine volume (Rattus norvegicus [6]): 0.86 ml 6hr-1 100g-1 | UN (Rattus norvegicus [7]): 104.7 mg/dL | T/C (Rattus norvegicus [8]): 0.83 | Na (Rattus norvegicus [9]): 0.131 m equiv 6hr-1 100g-1 | T/C (Rattus norvegicus [10]): 2.91 | inhibition in vivo at 10 mg/kg (Rattus norvegicus [11]): 41% | UN (Rattus norvegicus [12]): 90.9 mg/dL | T/C (Rattus norvegicus [13]): 2.41 | inhibition in vivo at 1 mg/kg (Rattus norvegicus [14]): 10% | Na+/K+ (Rattus norvegicus [15]): 0.85 | Na (Rattus norvegicus [16]): 0.23 m equiv 6hr-1 100g-1 | Na+/K+ (Rattus norvegicus [17]): 2.12 | T/C (Rattus norvegicus [18]): 0.77

Cn1c(=O)c2nc(C34CC5CC(CC3C5)C4)[nH]c2n(C)c1=O
inhibition in vivo at 1 mg/kg (Rattus norvegicus [19]): 43% | Ki (Adenosine A2 receptor): 1200 nM | T/C (Rattus norvegicus [20]): 1.74 | Na+/K+ (Rattus norvegicus [21]): 0.97 | inhibition in vivo at 0.01 mg/kg (Rattus norvegicus [22]): 6% | Urine volume (Rattus norvegicus [23]): 0.86 ml 6hr-1 100g-1 | Urine volume (Rattus norvegicus [24]): 2.27 ml 6hr-1 100g-1 | Cr (Rattus norvegicus [25]): 3.53 mg/dL | Urine volume (Rattus norvegicus [26]): 1.59 ml 6hr-1 100g-1 | Na (Rattus norvegicus [27]): 0.163 m equiv 6hr-1 100g-1 | T/C (Rattus norvegicus [8]): 2.36 | inhibition in vivo at 0.1 mg/kg (Rattus norvegicus [28]): 35% | inhibition in vivo at 0.1 mg/kg (Rattus norvegicus [29]): 36% | inhibition in vivo at 1 mg/kg (Rattus norvegicus [30]): 40% | UN (Rattus norvegicus [31]): 97.3 mg/dL | Na (Rattus norvegicus [32]): 0.257 m equiv 6hr-1 100g-1 | UN (Rattus norvegicus [33]): 116.7 mg/dL | Na+/K+ (Rattus norvegicus [15]): 1.67 | inhibition in vivo at 0.01 mg/kg (Rattus norvegicus [34]): 10% | Cr (Rattus norvegicus [35]): 3.14 mg/dL | UN (Rattus norvegicus [36]): 133.4 mg/dL | T/C (Rattus norvegicus [37]): 0.91 | Na (Rattus norvegicus [38]): 0.398 m equiv 6hr-1 100g-1 | Cr (Rattus norvegicus [39]): 2.88 mg/dL | T/C (Rattus norvegicus [40]): 0.82 | T/C (Rattus norvegicus [18]): 2.34 | T/C (Rattus norvegicus [41]): 1.66 | Na+/K+ (Rattus norvegicus [42]): 1.54
